Data: patent US7030060B1, “Rest-breaking composition and use thereof” (Akzo Nobel N.V., priority 1999, dated 2006)

Tested on: Golden Delicious apples
Assay: Usability of the organic nitrogen compound for rest-breaking
Assay type: in vivo
Conditions: South Africa
Description: It is to be understood that not all compounds may work on all deciduous fruit species in all orchards.

Substance: choline borate
- Usability on Golden Delicious apples: could not be used
